Measured values published in patent US20240150293A1, “SPIROCYCLOHEXANE DERIVATIVES, PHARMACEUTICAL COMPOSITIONS CONTAINING THEM AND THEIR USES AS ANTI-APOPTOTIC INHIBITORS” (LES LABORATOIRES SERVIER, priority 2021, published 2024).
pIC50, pKi: −log10 of the molar value. Where two headings read alike, the source gives them in different places.

Key:
[1] = biological target: Cy5-labelled Mcl1 (amino acids 171-321) C286S protein (UniProtKB Q07820) (Homo sapiens (Human), UniProt Q07820, C286S); test: Inhibition of Mcl-1 by the fluorescence quenching assay (Example A, Method B); format: binding
Procedure, shortened: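 Eleven-point compound series incubated 2 h at room temperature with 1 nM Cy5-tagged protein and quencher-labelled PUMA peptide at 10, 20 or 400 nM in HEPES/NaCl/Tween 20, pH 7.4, 5% DMSO. IC50 for 50% fluorescence increase by 4-parameter fit, then Ki derived (complete cKi or estimated eKi).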

NCI-H929 cell lines = test: In vitro cytotoxicity, CellTiter-Glo (CTG) assay (Example B, Method B); format: cell-based; conditions: NCI-H929 cells, 48 h incubation, read-out: C50
Description: Cellular viability was monitored with the cell viability assay (Cell Titer-Glo®) on NCI-H929 cell lines. The CellTiter-Glo® (CTG) Luminescent Cell Viability Assay (from Promega) is a homogeneous method to determine the number of viable cells in culture based on quantitation of the ATP present, which signals the presence of metabolically active cells.
Concentration response of test compounds are performed with 10 mM stock solutions (DMSO), 11-points curve, in a 384-well compound plate. The assay plate is prepared by stamping 120 nL from compound dilution plate of all different concentrations (e.g. 10 mM to have final 30 μM assay test) into a cell culture microplate, using Echo acoustic liquid handling (Labcyte, Beckman). 40 μl of cell solution is added and cells are incubated with compounds for 48 h at 37° C., 5% CO2. CTG was added to the cells (according to the manufacturer instructions) and luminescence intensity was recorded using the Pherastar plate reader (BMG).
This assay provides in vitro cellular efficacy of compounds of Formula (I) tested, measuring the C50, defined as the concentration needed to reach 50% of the cellular viability.

Sequence of Cy5-labelled Mcl1 (amino acids 171-321) C286S protein (Q07820 171-321 C286S): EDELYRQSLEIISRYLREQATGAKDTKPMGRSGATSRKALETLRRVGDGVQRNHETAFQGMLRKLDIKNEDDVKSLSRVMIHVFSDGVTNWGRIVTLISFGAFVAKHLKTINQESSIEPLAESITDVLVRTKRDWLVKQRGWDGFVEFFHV

For `Cc1oc(=O)oc1COC(=O)[C@]1(Nc2cccc(Cl)c2)CC[C@@]2(CC1)c1cc3c(cc1C[C@@H]2C[C@@H](C)COc1ccnc2c1[C@H](C)CCC2)OCO3` [Example 938, (5-methyl-2-oxo-2H-1,3-dioxol-4-yl)methyl (1r,4S,6′S)-4-(3-chloroanilino)-6′-[(2R)-2-methyl-3-{[(5R)-5-methyl-5,6,7,8-tetrahydroquinolin-4-yl]oxy}propyl]-6′,7′-dihydro-2′H-spiro[cyclohexane-1,5′-indeno[5,6-d][1,3]dioxole]-4-carboxylate], the pKi [1] was 8.61 and the pIC50 (NCI-H929 cell lines; Homo sapiens, NCI-H929, 48 h) was 7.35.
`CC(c1ccc(O)cc1)c1ccc2c(c1)[C@]1(CC[C@@](Nc3cccc(Cl)c3)(C(=O)O)CC1)[C@@H](C[C@@H](C)COc1ccnc3c1[C@H](C)CCC3)C2` (stereo partly drawn) [Example 885, (1r,2′S,4S)-4-(3-chloroanilino)-6′-[1-(4-hydroxyphenyl)ethyl]-2′-[(2R)-2-methyl-3-{[(5R)-5-methyl-5,6,7,8-tetrahydroquinolin-4-yl]oxy}propyl]-2′,3′-dihydrospiro[cyclohexane-1,1′-indene]-4-carboxylic acid] was tested, and the pKi [1] was 8.69 and the pIC50 (NCI-H929 cell lines; Homo sapiens, NCI-H929, 48 h) was 6.47.
`CCOc1cc2c(cc1Cl)C[C@H](C[C@@H](C)COc1ccnc3c1[C@H](C)CCC3)[C@]21CC[C@](Nc2cccc(Cl)c2)(C(=O)O)CC1` [Example 816, (1r,2′S,4S)-5′-chloro-4-(3-chloroanilino)-6′-ethoxy-2′-[(2R)-2-methyl-3-{[(5R)-5-methyl-5,6,7,8-tetrahydroquinolin-4-yl]oxy}propyl]-2′,3′-dihydrospiro[cyclohexane-1,1′-indene]-4-carboxylic acid] was tested, and the pKi [1] was 9.45 and the pIC50 (NCI-H929 cell lines; Homo sapiens, NCI-H929, 48 h) was 7.00.
For `CC1CCNc2nccc(OC[C@H](C)C[C@H]3Cc4ccccc4[C@]34CC[C@@](Nc3cccc(Cl)c3)(C(=O)O)CC4)c21` (single isomer, unassigned) [Example 641], the pKi [1] was 7.85 and the pIC50 (NCI-H929 cell lines) was 5.52.
`C[C@@H](COc1ccnc2c1[C@H](C)CCC2)C[C@H]1Cc2cc3c(cc2[C@]12CC[C@@](Nc1cccc(Cl)c1)(C(=O)O)CC2)CCO3` [Example 851, (1r,4S,6′S)-4-(3-chloroanilino)-6′-[(2R)-2-methyl-3-{[(5R)-5-methyl-5,6,7,8-tetrahydroquinolin-4-yl]oxy}propyl]-2′,3′,6′,7′-tetrahydrospiro[cyclohexane-1,5′-indeno[5,6-b]furan]-4-carboxylic acid] gave a pKi [1] of 10.59 and a pIC50 (NCI-H929 cell lines; Homo sapiens, NCI-H929, 48 h) of 7.46.
`C[C@@H](COc1ccnc2c1[C@H](C)CCC2)C[C@H]1Cc2cc3c(cc2[C@]12CC[C@@](Nc1cccc(Cl)c1)(C(=O)O)CC2)OC(C)(C)O3` [Example 848, (1r,4S,6′S)-4-(3-chloroanilino)-2′,2′-dimethyl-6′-[(2R)-2-methyl-3-{[(5R)-5-methyl-5,6,7,8-tetrahydroquinolin-4-yl]oxy}propyl]-6′,7′-dihydro-2′H-spiro[cyclohexane-1,5′-indeno[5,6-d][1,3]dioxole]-4-carboxylic acid] showed a pKi [1] of 10.46 and a pIC50 (NCI-H929 cell lines; Homo sapiens, NCI-H929, 48 h) of 7.31.
In the case of `C[C@@H](COc1ccnc2c1[C@H](C)CCC2)C[C@H]1Cc2cc3c(cc2[C@]12CC[C@@](Nc1cccc(Cl)c1)(C(=O)O)CC2)O[C@@H](C)CCO3` [Example 984, (1r,4S,4'S,8′S)-4-(3-chloroanilino)-4′-methyl-8′-[(2R)-2-methyl-3-{[(5R)-5-methyl-5,6,7,8-tetrahydroquinolin-4-yl]oxy}propyl]-3′,4′,8′,9′-tetrahydro-2′H-spiro[cyclohexane-1,7′-indeno[5,6-b][1,4]dioxepine]-4-carboxylic acid], the pKi [1] was 11.14 and the pIC50 (NCI-H929 cell lines; Homo sapiens, NCI-H929, 48 h) was 7.45.
`CCC(=O)OC(C)OC(=O)[C@]1(Nc2cccc(Cl)c2)CC[C@@]2(CC1)c1cc3c(cc1C[C@@H]2C[C@@H](C)COc1ccnc2c1[C@H](C)CCC2)OCO3` (stereo partly drawn) [Example 940, 1-(propanoyloxy)ethyl (1r,4S,6′S)-4-(3-chloroanilino)-6′-[(2R)-2-methyl-3-{[(5R)-5-methyl-5,6,7,8-tetrahydroquinolin-4-yl]oxy}propyl]-6′,7′-dihydro-2′H-spiro[cyclohexane-1,5′-indeno[5,6-d][1,3]dioxole]-4-carboxylate] was tested, and the pKi [1] was 8.60 and the pIC50 (NCI-H929 cell lines; Homo sapiens, NCI-H929, 48 h) was 6.58.
`CC[C@@H]1COc2cc3c(cc2O1)C[C@H](C[C@@H](C)COc1ccnc2c1[C@H](C)CCC2)[C@]31CC[C@](Nc2cccc(Cl)c2)(C(=O)O)CC1` [Example 980, (1r,2′R,4S,7′S)-4-(3-chloroanilino)-2′-ethyl-7′-[(2R)-2-methyl-3-{[(5R)-5-methyl-5,6,7,8-tetrahydroquinolin-4-yl]oxy}propyl]-2′,3′,7′,8′-tetrahydrospiro[cyclohexane-1,6′-indeno[5,6-b][1,4]dioxine]-4-carboxylic acid] gave a pKi [1] of 9.99 and a pIC50 (NCI-H929 cell lines; Homo sapiens, NCI-H929, 48 h) of 6.85.
`C[C@@H](COc1ccnc2c1[C@H](C)CCC2)CN1Cc2cc3c(cc2[C@]12CC[C@](Nc1cccc(Cl)c1)(C(=O)O)CC2)OCO3` [Example 45, (1r,4R)-4-(3-chloroanilino)-6′-[(2R)-2-methyl-3-{[(5R)-5-methyl-5,6,7,8-tetrahydroquinolin-4-yl]oxy}propyl]-6′,7′-dihydro-2′H-spiro[cyclohexane-1,5′-[1,3]dioxolo[4,5-f]isoindole]-4-carboxylic acid] was tested, and the pKi ([1]; Ki determined from IC50) was 6.52 and the pIC50 (NCI-H929 cell lines; Homo sapiens, NCI-H929, 48 h) was 4.62.
Compound `C[C@@H](COc1ccnc2c1[C@H](C)CCC2)C[C@H]1Cc2cc3c(cc2[C@]12CC[C@@](Nc1cccc(Cl)c1)(C(=O)O)CC2)OCC[C@@H](C)O3` [Example 986, (1r,2′R,4S,8′S)-4-(3-chloroanilino)-2′-methyl-8′-[(2R)-2-methyl-3-{[(5R)-5-methyl-5,6,7,8-tetrahydroquinolin-4-yl]oxy}propyl]-3′,4′,8′,9′-tetrahydro-2′H-spiro[cyclohexane-1,7′-indeno[5,6-b][1,4]dioxepine]-4-carboxylic acid] has a pKi [1] of 10.47 and a pIC50 (NCI-H929 cell lines; Homo sapiens, NCI-H929, 48 h) of 7.06.
`CC(C)COc1ccc2c(c1)[C@]1(CC[C@@](Nc3cccc(Cl)c3)(C(=O)O)CC1)[C@@H](C[C@@H](C)COc1ccnc3c1[C@H](C)CCC3)C2` [Example 788, (1r,2′S,4S)-4-(3-chloroanilino)-2′-[(2R)-2-methyl-3-{[(5R)-5-methyl-5,6,7,8-tetrahydroquinolin-4-yl]oxy}propyl]-6′-(2-methylpropoxy)-2′,3′-dihydrospiro[cyclohexane-1,1′-indene]-4-carboxylic acid] gave a pKi [1] of 9.62 and a pIC50 (NCI-H929 cell lines; Homo sapiens, NCI-H929, 48 h) of 6.58.
`C[C@@H](COc1ccnc2c1[C@H](C)CCC2)C[C@H]1Cc2ccc(OCC3CC3)cc2[C@]12CC[C@@](Nc1cccc(Cl)c1)(C(=O)O)CC2` [Example 791, (1r,2′S,4S)-4-(3-chloroanilino)-6′-(cyclopropylmethoxy)-2′-[(2R)-2-methyl-3-{[(5R)-5-methyl-5,6,7,8-tetrahydroquinolin-4-yl]oxy}propyl]-2′,3′-dihydrospiro[cyclohexane-1,1′-indene]-4-carboxylic acid] was tested, and the pKi [1] was 9.91 and the pIC50 (NCI-H929 cell lines; Homo sapiens, NCI-H929, 48 h) was 6.72.
`C[C@@H](COc1ccnc2c1[C@H](C)CCC2)CC1Cc2c(Cl)c(Cl)ccc2[C@]12CC[C@@](Nc1cccc(Cl)c1)(C(=O)O)CC2` (single isomer, unassigned) [Example 751] gave a pKi [1] of 9.19 and a pIC50 (NCI-H929 cell lines; Homo sapiens, NCI-H929, 48 h) of 6.55.
With `C[C@@H](COc1ccnc2c1[C@H](C)CCC2)CN1Cc2cc(Cl)ccc2[C@]12CC[C@@](Nc1cccc(Cl)c1)(C(=O)O)CC2` [Example 56, (1s,4S)-5′-chloro-4-(3-chloroanilino)-2′-[(2R)-2-methyl-3-{[(5R)-5-methyl-5,6,7,8-tetrahydroquinolin-4-yl]oxy}propyl]-2′,3′-dihydrospiro[cyclohexane-1,1′-isoindole]-4-carboxylic acid] the pKi ([1]; Ki determined from IC50) was 9.12 and the pIC50 (NCI-H929 cell lines; Homo sapiens, NCI-H929, 48 h) was 6.82.
In the case of `CCCC1COc2cc3c(cc2OC1)[C@]1(CC[C@@](Nc2cccc(Cl)c2)(C(=O)O)CC1)[C@@H](C[C@@H](C)COc1ccnc2c1[C@H](C)CCC2)C3` (single isomer, unassigned) [Example 990], the pKi [1] was 10.24 and the pIC50 (NCI-H929 cell lines) was 6.45.
`C[C@@H](COc1ccnc2c1[C@H](C)CCC2)C[C@H]1Cc2ccccc2[C@]12CC[C@@](Nc1ccc(F)c(Cl)c1F)(C(=O)O)CC2` [Example 707, (1r,2′S,4S)-4-(3-chloro-2,4-difluoroanilino)-2′-[(2R)-2-methyl-3-{[(5R)-5-methyl-5,6,7,8-tetrahydroquinolin-4-yl]oxy}propyl]-2′,3′-dihydrospiro[cyclohexane-1,1′-indene]-4-carboxylic acid] was tested, and the pKi [1] was 9.23 and the pIC50 (NCI-H929 cell lines; Homo sapiens, NCI-H929, 48 h) was 6.64.
Compound `CCN(CC)C(=O)OC(C)OC(=O)[C@]1(Nc2cccc(Cl)c2)CC[C@@]2(CC1)c1cc3c(cc1C[C@@H]2C[C@@H](C)COc1ccnc2c1[C@H](C)CCC2)OCO3` (stereo partly drawn) [Example 949, 1-[(diethylcarbamoyl)oxy]ethyl (1r,4S,6′S)-4-(3-chloroanilino)-6′-[(2R)-2-methyl-3-{[(5R)-5-methyl-5,6,7,8-tetrahydroquinolin-4-yl]oxy}propyl]-6′,7′-dihydro-2′H-spiro[cyclohexane-1,5′-indeno[5,6-d][1,3]dioxole]-4-carboxylate] has an inhibition at 1 µM ([1]; @ 1 μM, read-out: Mcl-1 inhibition, % at a single concentration) of 13.6% and a pIC50 (NCI-H929 cell lines; Homo sapiens, NCI-H929, 48 h) of less than 4.52.
